Reference: patent publication US6358885B1, “Substituted phenylheterocyclic herbicides” (Mississippi State University, priority 1992, dated 2002)

Assays:
sandbur = assay: Test G preemergence/postemergence greenhouse plant response rating 0 to 100; assay type: in vivo, Cenchrus echinatus; settings: 0 to 100 scale
From the text: (§1) Seeds, rhizomes, or plant parts of alfalfa (Medicago ativa), annual bluegrass (Poa annua), bermudagrass (Cynodon dactylon), broadleaf signalgrass (Brachiaria plantaginea), common purslane (Portulaca oleracea), common ragweed (Ambrosia elatior), […] (Paspalum dilatatum), goosegrass (Eleusine indica), guineagrass (Panicum maximum), […] exaltata), johnsongrass (Sorghum halepense), large crabgrass (Digitaria sanguinalis), peanut (Arachis hypoagaea), pitted morningglory (Ipomoea lacunosa), purple nutsedge (Cyperus rotundus), sandbur (Cenchrus echinatus), smooth crabgrass (Digitaria ischaemum) and yellow nutsedge (Cyperus esculentus) were planted into greenhouse pots containing greenhouse planting medium. Each pot contained only one plant species. The test compound was dissolved in a non-phytotoxic solvent and applied preemergence and/or postemergence to the plants. Preemergence applications were made within one day of planting the seeds or plant parts. Postemergence applications were applied when the plants were in the two to four leaf stage (three to twenty cm). Test chemicals were dissolved in a non-phytotoxic solvent and applied preemergence and postemergence to the plants. Untreated control plants and treated plants were placed in the greenhouse and visually evaluated for injury at 13 to 21 days after herbicide application. […] A dash (-) response indicates no test result.

dallisgrass = assay: as above; assay type: in vivo, Paspalum dilatatum; settings: 0 to 100 scale
From the text: as §1

alfalfa = assay: as above; assay type: in vivo, Medicago ativa; settings: 0 to 100 scale
From the text: as §1

annual bluegrass = assay: as above; assay type: in vivo, Poa annua; settings: 0 to 100 scale
From the text: as §1

johnsongrass = assay: as above; assay type: in vivo, Sorghum halepense; settings: 0 to 100 scale
From the text: as §1

yellow nutsedge = assay: as above; assay type: in vivo, Cyperus esculentus; settings: Rate 125 g/ha, 0 to 100 scale
From the text: as §1

purple nutsedge = assay: as above; assay type: in vivo, Cyperus rotundus; settings: Rate 125 g/ha, 0 to 100 scale
From the text: as §1

peanut = assay: as above; assay type: in vivo, Arachis hypoagaea; settings: 0 to 100 scale
From the text: as §1

guineagrass = assay: as above; assay type: in vivo, Panicum maximum; settings: 0 to 100 scale
From the text: as §1

common ragweed = assay: as above; assay type: in vivo, Ambrosia elatior; settings: 0 to 100 scale
From the text: as §1

itchgrass = assay: as above; assay type: in vivo, Rottboellia exaltata; settings: 0 to 100 scale
From the text: as §1

large crabgrass = assay: as above; assay type: in vivo, Digitaria sanguinalis; settings: 0 to 100 scale
From the text: as §1

common purslane = assay: as above; assay type: in vivo, Portulaca oleracea; settings: 0 to 100 scale
From the text: as §1

pitted morningglory = assay: as above; assay type: in vivo, Ipomoea lacunosa; settings: 0 to 100 scale
From the text: as §1

goosegrass = assay: as above; assay type: in vivo, Eleusine indica; settings: 0 to 100 scale
From the text: as §1

smooth crabgrass = assay: as above; assay type: in vivo, Digitaria ischaemum; settings: 0 to 100 scale
From the text: as §1

bermudagrass = assay: as above; assay type: in vivo, Cynodon dactylon; settings: 0 to 100 scale
From the text: as §1

broadleaf signalgrass = assay: as above; assay type: in vivo, Brachiaria plantaginea; settings: 0 to 100 scale
From the text: as §1

arrowhead = assay: Test D paddy water application plant response rating 0 to 100; assay type: in vivo, Sagittaria spp.; settings: 0 to 100 scale, approx. 21 days
From the text: (§2) Plastic pots were partially filled with silt loam soil. The soil was then saturated with water. […] After planting, water levels were raised to 3 cm above the soil surface and maintained at this level throughout the test. Chemical treatments were formulated in a non-phytotoxic solvent and applied directly to the paddy water. Treated plants and controls were maintained in a greenhouse for approximately 21 days, after which all species were compared to controls and visually evaluated. […] A dash (-) response means no test result.

waterchestnut = assay: as above; assay type: in vivo, Eleocharis spp.; settings: 0 to 100 scale, approx. 21 days
From the text: as §2

SMILES: CC(C)Oc1cc(-c2nn3c(c2Cl)CCCC3)c(F)cc1Cl [Compound 21]
- Plant response rating, S. Sandbur (sandbur; POSTEMERGENCE, Rate 125 g/ha): 0
- Plant response rating, S. Sandbur (sandbur; POSTEMERGENCE, Rate 250 g/ha): 0
- Plant response rating, S. Sandbur (sandbur; PREEMERGENCE, Rate 125 g/ha): 0
- Plant response rating, S. Sandbur (sandbur; PREEMERGENCE, Rate 250 g/ha): 0
- Plant response rating, Dallisgrass (dallisgrass; POSTEMERGENCE, Rate 125 g/ha): 0
- Plant response rating, Dallisgrass (dallisgrass; POSTEMERGENCE, Rate 250 g/ha): 0
- Plant response rating, Dallisgrass (dallisgrass; PREEMERGENCE, Rate 125 g/ha): 20
- Plant response rating, Dallisgrass (dallisgrass; PREEMERGENCE, Rate 250 g/ha): 40
- Plant response rating, Alfalfa Var. (alfalfa; POSTEMERGENCE, Rate 125 g/ha): 0
- Plant response rating, Alfalfa Var. (alfalfa; POSTEMERGENCE, Rate 250 g/ha): 0
- Plant response rating, Alfalfa Var. (alfalfa; PREEMERGENCE, Rate 125 g/ha): 0
- Plant response rating, Alfalfa Var. (alfalfa; PREEMERGENCE, Rate 250 g/ha): 0
- Plant response rating, Ann Bluegrass (annual bluegrass; POSTEMERGENCE, Rate 125 g/ha): 0
- Plant response rating, Ann Bluegrass (annual bluegrass; POSTEMERGENCE, Rate 250 g/ha): 0
- Plant response rating, Ann Bluegrass (annual bluegrass; PREEMERGENCE, Rate 125 g/ha): 30
- Plant response rating, Ann Bluegrass (annual bluegrass; PREEMERGENCE, Rate 250 g/ha): 0
- Plant response rating, Johnsongrass (johnsongrass; POSTEMERGENCE, Rate 125 g/ha): 0
- Plant response rating, Johnsongrass (johnsongrass; POSTEMERGENCE, Rate 250 g/ha): 0
- Plant response rating, Johnsongrass (johnsongrass; PREEMERGENCE, Rate 125 g/ha): 30
- Plant response rating, Johnsongrass (johnsongrass; PREEMERGENCE, Rate 250 g/ha): 0
- Plant response rating, Yellow Nutsedge (yellow nutsedge; POSTEMERGENCE): 0
- Plant response rating, Yellow Nutsedge (yellow nutsedge; PREEMERGENCE): 0
- Plant response rating, Purple Nutsedge (purple nutsedge; POSTEMERGENCE): 0
- Plant response rating, Purple Nutsedge (purple nutsedge; PREEMERGENCE): 0
- Plant response rating, Peanuts (peanut; POSTEMERGENCE, Rate 125 g/ha): 0
- Plant response rating, Peanuts (peanut; POSTEMERGENCE, Rate 250 g/ha): 0
- Plant response rating, Peanuts (peanut; PREEMERGENCE, Rate 125 g/ha): 0
- Plant response rating, Peanuts (peanut; PREEMERGENCE, Rate 250 g/ha): 20
- Plant response rating, Guineagrass (guineagrass; POSTEMERGENCE, Rate 125 g/ha): 0
- Plant response rating, Guineagrass (guineagrass; POSTEMERGENCE, Rate 250 g/ha): 0
- Plant response rating, Guineagrass (guineagrass; PREEMERGENCE, Rate 125 g/ha): 100
- Plant response rating, Guineagrass (guineagrass; PREEMERGENCE, Rate 250 g/ha): 0
- Plant response rating, Cmn Ragweed (common ragweed; POSTEMERGENCE, Rate 125 g/ha): 0
- Plant response rating, Cmn Ragweed (common ragweed; POSTEMERGENCE, Rate 250 g/ha): 100
- Plant response rating, Cmn Ragweed (common ragweed; PREEMERGENCE, Rate 125 g/ha): 50
- Plant response rating, Cmn Ragweed (common ragweed; PREEMERGENCE, Rate 250 g/ha): 50
- Plant response rating, Itchgrass (itchgrass; POSTEMERGENCE, Rate 125 g/ha): 0
- Plant response rating, Itchgrass (itchgrass; POSTEMERGENCE, Rate 250 g/ha): 0
- Plant response rating, Itchgrass (itchgrass; PREEMERGENCE, Rate 125 g/ha): 60
- Plant response rating, Itchgrass (itchgrass; PREEMERGENCE, Rate 250 g/ha): 0
- Plant response rating, Large Crabgrass (large crabgrass; POSTEMERGENCE, Rate 125 g/ha): 0
- Plant response rating, Large Crabgrass (large crabgrass; POSTEMERGENCE, Rate 250 g/ha): 0
- Plant response rating, Large Crabgrass (large crabgrass; PREEMERGENCE, Rate 125 g/ha): 100
- Plant response rating, Large Crabgrass (large crabgrass; PREEMERGENCE, Rate 250 g/ha): 60
- Plant response rating, Cmn Purslane (common purslane; POSTEMERGENCE, Rate 125 g/ha): 70
- Plant response rating, Cmn Purslane (common purslane; POSTEMERGENCE, Rate 250 g/ha): 90
- Plant response rating, Cmn Purslane (common purslane; PREEMERGENCE, Rate 125 g/ha): 100
- Plant response rating, Cmn Purslane (common purslane; PREEMERGENCE, Rate 250 g/ha): 0
- Plant response rating, Pit Morninglory (pitted morningglory; POSTEMERGENCE, Rate 125 g/ha): 0
- Plant response rating, Pit Morninglory (pitted morningglory; POSTEMERGENCE, Rate 250 g/ha): 20
- Plant response rating, Pit Morninglory (pitted morningglory; PREEMERGENCE, Rate 125 g/ha): 0
- Plant response rating, Pit Morninglory (pitted morningglory; PREEMERGENCE, Rate 250 g/ha): 20
- Plant response rating, Goosegrass (goosegrass; POSTEMERGENCE, Rate 125 g/ha): 0
- Plant response rating, Goosegrass (goosegrass; POSTEMERGENCE, Rate 250 g/ha): 0
- Plant response rating, Goosegrass (goosegrass; PREEMERGENCE, Rate 125 g/ha): 100
- Plant response rating, Goosegrass (goosegrass; PREEMERGENCE, Rate 250 g/ha): 70
- Plant response rating, Smooth Crabgras (smooth crabgrass; POSTEMERGENCE, Rate 125 g/ha): 0
- Plant response rating, Smooth Crabgras (smooth crabgrass; POSTEMERGENCE, Rate 250 g/ha): 0
- Plant response rating, Smooth Crabgras (smooth crabgrass; PREEMERGENCE, Rate 125 g/ha): 70
- Plant response rating, Smooth Crabgras (smooth crabgrass; PREEMERGENCE, Rate 250 g/ha): 20
- Plant response rating, Bermudagrass (bermudagrass; POSTEMERGENCE, Rate 125 g/ha): 0
- Plant response rating, Bermudagrass (bermudagrass; POSTEMERGENCE, Rate 250 g/ha): 0
- Plant response rating, Bermudagrass (bermudagrass; PREEMERGENCE, Rate 125 g/ha): 20
- Plant response rating, Bermudagrass (bermudagrass; PREEMERGENCE, Rate 250 g/ha): 0
- Plant response rating, Brdlf Sgnlgrass (broadleaf signalgrass; POSTEMERGENCE, Rate 125 g/ha): 0
- Plant response rating, Brdlf Sgnlgrass (broadleaf signalgrass; POSTEMERGENCE, Rate 250 g/ha): 0
- Plant response rating, Brdlf Sgnlgrass (broadleaf signalgrass; PREEMERGENCE, Rate 125 g/ha): 0
- Plant response rating, Brdlf Sgnlgrass (broadleaf signalgrass; PREEMERGENCE, Rate 250 g/ha): 0

SMILES: C#CC(C)Oc1cc(-c2nn3c(c2Cl)CCCC3)c(F)cc1Cl (stereo not shown) [Compound 36]
- Arrowhead plant response rating (arrowhead; Rate 4 g/ha): 0
- Arrowhead plant response rating (arrowhead; Rate 8 g/ha): 0
- Arrowhead plant response rating (arrowhead; Rate 16 g/ha): 0
- Arrowhead plant response rating (arrowhead; Rate 32 g/ha): 0
- Arrowhead plant response rating (arrowhead; Rate 64 g/ha): 0
- Waterchestnut plant response rating (waterchestnut; Rate 4 g/ha): 10
- Waterchestnut plant response rating (waterchestnut; Rate 8 g/ha): 10
- Waterchestnut plant response rating (waterchestnut; Rate 16 g/ha): 20
- Waterchestnut plant response rating (waterchestnut; Rate 32 g/ha): 20
- Waterchestnut plant response rating (waterchestnut; Rate 64 g/ha): 20

SMILES: C=C(Cl)COc1cc(-c2nn3c(c2Cl)CCCC3)c(F)cc1Cl [Compound 40]
- Arrowhead plant response rating (arrowhead; Rate 4 g/ha): 0
- Arrowhead plant response rating (arrowhead; Rate 8 g/ha): 0
- Arrowhead plant response rating (arrowhead; Rate 16 g/ha): 0
- Arrowhead plant response rating (arrowhead; Rate 32 g/ha): 0
- Arrowhead plant response rating (arrowhead; Rate 64 g/ha): 0
- Waterchestnut plant response rating (waterchestnut; Rate 4 g/ha): 20
- Waterchestnut plant response rating (waterchestnut; Rate 8 g/ha): 20
- Waterchestnut plant response rating (waterchestnut; Rate 16 g/ha): 30
- Waterchestnut plant response rating (waterchestnut; Rate 32 g/ha): 30
- Waterchestnut plant response rating (waterchestnut; Rate 64 g/ha): 60
